According to patent publication US11299514B2, “Antimicrobial peptide AS-hepc3(48-56) of Acanthopagrus schlegelii and method thereof” (Xiamen University, priority 2019, dated 2022):
Values after ≈ are worked out from the molar mass of the structure shown. Peptide text beside a SMILES is read from it.

Columns and labels:
[1] = tested on: drug-resistant clinical Escherichia coli isolate QZ18109; assay type: cell-based; settings: E. coli QZ18109
From the text: (§1) 1. Strains were as follows: Pseudomonas aeruginosa PAO1, drug-resistant clinical Pseudomonas aeruginosa isolates QZ19121, QZ19122, QZ19123, QZ19124, and QZ19125, drug-resistant clinical Acinetobacter baumannii isolates QZ18050 and QZ18055, clinical isolation of resistant Staphylococcus aureus QZ18090 and QZ18091, drug-resistant clinical Klebsiella pneumoniae isolate QZ18106, and drug-resistant clinical Escherichia coli isolates QZ18109 and QZ18110. Pseudomonas aeruginosa PAO1 was purchased from the China General Microbiological Culture Collection Center, Institute of Microbiology, Chinese Academy of Sciences, and the clinical isolates were from the Laboratory of Second Affiliated Hospital of Fujian Medical University.
(§2) 2. A detailed method is as follows.
(§3) (1) Preserved strains were streaked on MH plates (Mueller-Hinton agar plates) and were cultured at 37° C. overnight;
(§4) (2) A single clone was screened and was cultured in a MH liquid medium (Mueller-Hinton agar liquid medium) at 37° C. and 200 rpm (revolutions per minute) to a logarithmic stage;
(§5) (3) The strains were collected at 5000 g (i.e., a 5000 g centrifugal force) for 2 minutes, the strains were resuspended with a 10 mM (mmol/L) sodium phosphate buffer (pH=7.4), and the strains were finally diluted with the MH liquid medium to enable a final concentration of the strains to be 5×10^5 cfu/mL;
(§6) (4) Synthesized powder of the antimicrobial peptide AS-hepc3(48-56) was dissolved in sterile Milli-Q water, and a peptide concentration (i.e., a concentration of the antimicrobial peptide AS-hepc3(48-56)) was diluted to 2 μM, 4 μM, 8 μM, 16 μM, 32 μM, or 64 μM in double ratios; and
(§7) (5) On a polypropylene sterile 96-well culture plate, each test strain was arranged into a blank control group, a negative control group, and a test group, and three parallel groups of each test group were as follows: • a) Blank control group: 50 μL of test peptide sample (i.e., the antimicrobial peptide AS-hepc3(48-56)) and 50 μL of medium (i.e., the Mueller-Hinton agar liquid medium); • b) Negative control group: 50 μL of sterile Milli-Q water and 50 μL of strain suspension; and • c) Test group: 50 μL of test peptide sample and 50 μL of the strain suspension.
(§8) The polypropylene sterile 96-well culture plate was placed in a 37° C. incubator for 18-24 hours, and MIC results in the test group were observed. After the test group was pipetted and mixed, an appropriate amount of the strain was drawn and spread on the MH plate and was cultured at 37° C. overnight, and MBC results were observed.
(§9) Annotations: MIC: minimum inhibitory concentration (μM), which is represented by a-b; a is a maximum peptide concentration at which a growth of the strain can be observed by naked eyes, and b is a minimum peptide concentration at which no growth of the strain can be observed by the naked eyes. MBC: Minimum bactericidal concentration (μM), which is a concentration that kills 99.9% of microbes.

[2] = tested on: drug-resistant clinical Pseudomonas aeruginosa isolate QZ19124; assay type: cell-based; settings: P. aeruginosa QZ19124
From the text: as §1, §2, §3, §4, §5, §6, §7, §8, §9

[3] = tested on: resistant Staphylococcus aureus QZ18090; assay type: cell-based; settings: S. aureus QZ18090
From the text: as §1, §2, §3, §4, §5, §6, §7, §8, §9

[4] = tested on: drug-resistant clinical Pseudomonas aeruginosa isolate QZ19122; assay type: cell-based; settings: P. aeruginosa QZ19122
From the text: as §1, §2, §3, §4, §5, §6, §7, §8, §9

[5] = tested on: drug-resistant clinical Pseudomonas aeruginosa isolate QZ19125; assay type: cell-based; settings: P. aeruginosa QZ19125
From the text: as §1, §2, §3, §4, §5, §6, §7, §8, §9

[6] = tested on: resistant Staphylococcus aureus QZ18091; assay type: cell-based; settings: S. aureus QZ18091
From the text: as §1, §2, §3, §4, §5, §6, §7, §8, §9

[7] = tested on: drug-resistant clinical Klebsiella pneumoniae isolate QZ18106; assay type: cell-based; settings: K. pneumoniae QZ18106
From the text: as §1, §2, §3, §4, §5, §6, §7, §8, §9

[8] = tested on: drug-resistant clinical Pseudomonas aeruginosa isolate QZ19121; assay type: cell-based; settings: P. aeruginosa QZ19121
From the text: as §1, §2, §3, §4, §5, §6, §7, §8, §9

[9] = tested on: drug-resistant clinical Acinetobacter baumannii isolate QZ18055; assay type: cell-based; settings: A. baumannii QZ18055
From the text: as §1, §2, §3, §4, §5, §6, §7, §8, §9

[10] = tested on: Pseudomonas aeruginosa PAO1; assay type: cell-based
From the text: as §1, §2, §3, §4, §5, §6, §7, §8, §9

[11] = tested on: drug-resistant clinical Escherichia coli isolate QZ18110; assay type: cell-based; settings: E. coli QZ18110
From the text: as §1, §2, §3, §4, §5, §6, §7, §8, §9

[12] = tested on: drug-resistant clinical Pseudomonas aeruginosa isolate QZ19123; assay type: cell-based; settings: P. aeruginosa QZ19123
From the text: as §1, §2, §3, §4, §5, §6, §7, §8, §9

[13] = tested on: drug-resistant clinical Acinetobacter baumannii isolate QZ18050; assay type: cell-based; settings: A. baumannii QZ18050
From the text: as §1, §2, §3, §4, §5, §6, §7, §8, §9

[14] = tested on: Pseudomonas aeruginosa PAO1; assay: Comparative experiment of drug resistance (serial passage, change of MIC); assay type: cell-based
From the text: FIG. 1 illustrates a comparison of antimicrobial resistance of an antimicrobial peptide AS-hepc3(48-56) of Acanthopagrus schlegelii and antibiotic meropenem against Pseudomonas aeruginosa PAO1, wherein the abscissa represents time (days), and the ordinate represents a ratio of change of a minimum inhibition concentration (MIC) and an initial antimicrobial concentration.
1. Comparison of the antimicrobial peptide AS-hepc3(48-56) and antibiotic meropenem against Pseudomonas aeruginosa PAO1. Pseudomonas Aeruginosa PAO1 was purchased from the China General Microbiological Culture Collection Center, Institute of Microbiology, Chinese Academy of Sciences.
A detailed method is as follows:
(1) Preserved Pseudomonas aeruginosa PAO1 was streaked on MH plates and was cultured at 37° C. overnight;
(2) A single clone was screened and was cultured in MH liquid medium at 37° C. and 200 rpm to a logarithmic stage;
(3) The strain was corrected at 5000 g for 2 minutes, the strain was resuspended in 10 mM sodium phosphate buffer (pH=7.4), and the strain was finally diluted with a mixture of the 10 mM sodium phosphate buffer and the MH liquid medium to enable a final concentration of the stain to be 5×10^5 cfu/mL;
(4) Synthesized powder of the antimicrobial peptide AS-hepc3(48-56) was dissolved in sterile Milli-Q water, and a peptide concentration was diluted to 8 μM, 12 μM, 16 μM, 24 μM, 32 μM, 48 μM, 64 μM, or 96 μM in double ratios;
(5) Antibiotic meropenem powder was dissolved in sterile Milli-Q water to configure a 5 mg/mL reserved solution, filtered by a 0.22 μm filter membrane, and diluted to different work concentrations being 0.0625 μg/mL, 0.125 μg/mL, 0.25 μg/mL, 0.5 μg/mL, 1 μg/mL, 2 μg/mL, 4 μg/mL, 8 μg/mL, 16 μg/mL, 32 μg/mL, 48 μg/mL, 64 μg/mL, 96 μg/mL, 128 μg/mL, 192 μg/mL, 256 μg/mL, or 512 μg/mL; and
(6) On a 96-well cell culture plate, each test strain was arranged into a blank control group, a negative control group, and a test group, and three parallel groups of each test group were as follows: • a) Blank control group: 50 μL of test peptide sample and 50 μL of medium; • b) Negative control group: 50 μL of sterile Milli-Q water and 50 μL of strain suspension; and • c) Test group: 50 μL of the test peptide sample and 50 μL of the strain suspension.
The 96-well cell culture plate was placed in a 37° C. incubator and was cultured for 18-24 hours, and MIC results in the test group were observed. The strain having the maximum peptide concentration at which the growth of the strain could be observed was repeatedly diluted thousand-fold, and 50 μL was repeatedly taken for a next generation of antimicrobial experiments for 150 generations.

[15] = tested on: human kidney epithelial cells (293T); assay: in vitro; assay type: cell-based
From the text: (§10) FIGS. 2A and 2B illustrate cytotoxicity experimental result diagrams of antimicrobial peptide AS-hepc3(48-56) obtained by an MTS-PMS method, wherein FIG. 2A represents AML12 cells (alpha mouse liver 12 cells), FIG. 2B represents 293T cells, the abscissa represents an AS-hepc3(48-56) protein concentration (μM), and the ordinate represents a cell proliferation rate (%).
(§11) 1. Mouse hepatocytes (AML12) (mouse liver cells) and human kidney epithelial cells (293T) were selected to detect a cytotoxicity of the antimicrobial peptide AS-hepc3(48-56).
as §2
(§12) (6) Well-grown mouse hepatocytes (AML12) and human kidney epithelial cells (293T) were collected, a cell concentration was adjusted to 10^3-10^4 cells/mL, the cells were evenly blown, and 100 μL of strain suspension was placed in each well of a 96-well cell culture plate and was static cultured at a condition of 37° C. and […]. More than 50% of the strains were adhered to a wall.
(§13) (7) The medium is carefully sucked out, a corresponding medium comprising different concentrations (0 μM, 40 μM, or 80 μM) was added and was static cultured for 24 hours at a condition of 37° C. and […].
(§14) (8) After 20 μL of MTS-PMS solution was added and was incubated for 3 hours in the dark, an OD492 value (optical density reading at 492 nm wavelength) was detected by a microplate reader to evaluate the cytotoxicity of the antimicrobial peptide AS-hepc3(48-56).

[16] = tested on: mouse hepatocytes (AML12); assay: in vitro; assay type: cell-based
From the text: as §10, §11, §2, §12, §13, §14

in vitro = assay type: cell-based, human
From the text: as §10, §11, §2, §12, §13, §14

[17] = human, 293T cells (human kidney epithelial cells)
[18] = mouse, AML12 cells (mouse hepatocytes)

SMILES: N=C(N)NCCC[C@H](NC(=O)[C@H](CS)NC(=O)[C@H](CCCNC(=N)N)NC(=O)[C@H](CCCNC(=N)N)NC(=O)[C@H](CCCNC(=N)N)NC(=O)[C@@H](N)CCCNC(=N)N)C(=O)N[C@@H](Cc1ccccc1)C(=O)N[C@@H](CS)C(=O)N[C@@H](CS)C(=O)O [AS-hepc3(48-56), Arg-Arg-Arg-Arg-Cys-Arg-Phe-Cys-Cys] (H-RRRRCRFCC-OH; N-terminus and C-terminus assumed)
- MBC [1]: 16 µM (≈ 20.1 µg/mL)
- MIC [1]: 4 to 8 µM
- MBC [2]: 16 µM (≈ 20.1 µg/mL)
- MIC [2]: 4 to 8 µM
- MBC [3]: 8 µM (≈ 10 µg/mL)
- MIC [3]: 4 to 8 µM
- MBC [4]: 16 µM (≈ 20.1 µg/mL)
- MIC [4]: 4 to 8 µM
- MBC [5]: 16 µM (≈ 20.1 µg/mL)
- MIC [5]: 8 to 16 µM
- MBC [6]: 8 µM (≈ 10 µg/mL)
- MIC [6]: 4 to 8 µM
- MBC [7]: >32 µM
- MIC [7]: >32 µM
- MBC [8]: 16 µM (≈ 20.1 µg/mL)
- MIC [8]: 4 to 8 µM
- MBC [9]: >32 µM
- MIC [9]: >32 µM
- MBC [10]: 8 µM (≈ 10 µg/mL)
- MIC [10]: 4 to 8 µM
- MBC [11]: 8 µM (≈ 10 µg/mL)
- MIC [11]: 4 to 8 µM
- MBC [12]: 16 µM (≈ 20.1 µg/mL)
- MIC [12]: 4 to 8 µM
- MBC [13]: >32 µM
- MIC [13]: >32 µM
- anti-Pseudomonas aeruginosa MIC value relative to initial MIC value ([14]; after 150 days of continuous use): twice
- cytotoxicity (in words) [15]: no cytotoxicity
- cytotoxicity (in words) [16]: no cytotoxicity
- viability at 24 h, 40 µM (in vitro; [17]): > 95%
- viability at 24 h, 80 µM (in vitro; [17]): > 95%
- viability at 24 h, 40 µM (in vitro; [18]): > 95%
- viability at 24 h, 80 µM (in vitro; [18]): > 95%

SMILES: C[C@@H](O)[C@H]1C(=O)N2C(C(=O)O)=C(S[C@@H]3CN[C@H](C(=O)N(C)C)C3)[C@H](C)[C@H]12 [meropenem]
- anti-Pseudomonas aeruginosa MIC value relative to initial MIC value ([14]; after 3 days of continuous use): 4 times
- anti-Pseudomonas aeruginosa MIC value relative to initial MIC value ([14]; after 10 days of continuous use): 16 times
- anti-Pseudomonas aeruginosa MIC value relative to initial MIC value ([14]; after 90 days of use): 1024 times
